Measured values reported in paper PMC9228955, “Synthesis, Physicochemical, Labeling and In Vivo Characterization of ^44Sc-Labeled DO3AM-NI as a Hypoxia-Sensitive PET Probe” (Pharmaceuticals, 2022).

How the values were obtained:
[1] = Stability constant of Sc(III) complex by 1H and 45Sc NMR batch samples and pH-potentiometric titration; pSc calculation; assay type: physicochemical; settings: 0.15 M NaCl, 37 °C
Experimental: The stability constant of the Sc(DO3AM-NI) complex was assessed by ^1H and ^45Sc-NMR studies using samples prepared in the 0.055–0.195 M acid concentration range. […] Absence of protonation and the presence of a ternary hydroxydo species formation with KScL•OH = 10.88(5) were detected at our experimental conditions. The NMR samples contained 3.32 mM ligand, ScCl3 and a constant ionic strength of 0.15 M NaCl. The samples were thermostated at 37 °C, and their ^1H- and ^45Sc-NMR spectra were recorded after 60 days. In order to ensure that the equilibrium in the samples was attained, the ^1H and ^45Sc-NMR measurements were repeated again 90 days later. The spectra were practically identical with the spectra recorded at 60 days (Figures S4 and S5). As expected, the thermodynamic stability constant of the Sc(DO3AM-NI) complex (log KScL = 22.36(4)) was considerably lower than those of Sc(III) complexes formed with DOTA, DTPA or AAZTA ligands (Table 1). A moderate decrease in terms of thermodynamic stability constants was already observed for the complexes of DO3A-monamides formed with Gd(III) ions in comparison to the stability of parent Gd(DOTA)^− chelate. Despite the lower stability constant of the complex, the Sc(III) ion was complexed completely around pH = 2.0 (in a millimolar concentration range, see Figure 2). However, it might be misleading to directly compare the stability constants of the complexes formed by ligands of different basicity (as it depends on the basicity of the ligand); therefore, we calculated and compared the pSc values (which could be treated as conditional constants) for the complexes shown in Table 1 by taking the protonation constants of ligands, the stability constants of the complex species present in solution and the hydrolysis of the Sc(III) ion (according to Ref. [23]: log βSc(OH) = −4.3, log βSc(OH)2 = −9.7, log βSc(OH)3 = −16.1, log βSc(OH)4 = −26.0 and log βSc2(OH)4 = −6.0) into account.
The equilibrium measurements were performed at constant ionic strength maintained by 0.15 M NaCl at 37 °C. For determining the protonation constants of DO3AM-NI, two parallel pH-potentiometric titrations were performed with 0.1611 M NaOH in a 5.00 cm^3 sample containing the ligand at the concentration of 2.76 mM. The stability constant of Sc(DO3AM-NI) was assessed by ^1H and ^45Sc NMR in 0.7 mL “batch” samples containing the metal and the ligand at 3.32 mM and different concentrations of strong acid (0.05–0.20 M) aged 90 days (see below). The formation of protonated and ternary hydroxydo complex species was probed by pH-potentiometric titration by titrating the preformed complex (at a concentration of 1.95 mM) with standardized NaOH solution. For the calculation of the logKMH-1L value, the VNaOH–pH data used were obtained in the pH range 1.68–11.85. The pH-potentiometric titrations were carried out with a Metrohm 785 DMP Titrino titration workstation with the use of a Metrohm-6.0233.100-combined electrode calibrated via a two-point calibration routine using KH-phthalate (pH = 4.005) and borax (pH = 9.177) buffers. The titrated samples were stirred with a magnetic stirrer, and N2 gas was bubbled through the solutions to avoid the effect of CO2. For the calculation of [H^+] from the measured pH values, the method proposed by Irving et al. was applied. For this, a 0.01M HCl solution was titrated with the standardized NaOH solution in the presence of 0.15 M NaCl ionic strength at 37 °C. The differences between the measured (pHread) and calculated pH (-log[H^+]) values were used to obtain the equilibrium H^+ concentration from the pHmeas values during the titrations. […] For the calculation of the equilibrium constants, the PSEQUAD program was used.
^1H- and ^45Sc-NMR measurements (400 MHz and 97 MHz, respectively) were performed with a Bruker DRX 400 (9.4 T) spectrometer equipped with a Bruker VT-1000 thermocontroller and a BB inverse z-gradient probe (5 mm). […]

[2] = Formation rate of Sc(DO3AM-NI) at acidic pH followed by 1H and 45Sc NMR; assay type: physicochemical; settings: pH = 1.52, 25 °C, 3.80 mM ligand, 4.90 mM ScCl3
Experimental: This is promising for the labeling studies, yet it also underlines that the so-called “batch-method” must be applied in very acidic samples for the determination of the stability constant of the Sc(DO3AM-NI) chelate.
^1H- and ^45Sc-NMR measurements (400 MHz and 97 MHz, respectively) were performed with a Bruker DRX 400 (9.4 T) spectrometer equipped with a Bruker VT-1000 thermocontroller and a BB inverse z-gradient probe (5 mm). The kinetic experiments were performed at 25 °C, whereas the equilibrium studies were performed at 37 °C in aqueous solutions using D2O (in capillary) for locking. Typical parameters of ^45Sc-NMR measurements used were pulse length p1 = 15.6 μs (90°), relaxation delay d1 = 0.1 s and 128 scans. The formation reaction of the Sc(DO3AM-NI) complex was followed by ^1H- and ^45Sc-NMR spectroscopy in a sample containing 3.80 mM ligand and 4.90 mM ScCl3 with a total acid concentration corresponding to a pH of 1.54. […] Actually, the intensity of the ^45Sc-NMR signal of Sc(III)aq could precisely be measured while that of the broad signal corresponding to the Sc(DO3AM-NI) complex could not. […] The molar integral values of the ^45Sc-NMR signal of Sc(III)aq were determined by recording the ^45Sc-NMR spectra of a 50 mM ScCl3 solution containing 0.015 M HCl as a reference sample. […]

log KScL•OH (ternary hydroxydo species) [1]: 10.88(5)
log KSc•L (stability constant of Sc(III) complex) [1]: 22.36(4)
pH around which the Sc(III) ion is complexed completely ([1]; millimolar concentration range): ~2.0
SMILES: O=C([O-])CN1CCN(CC(=O)[O-])CCN(CC(=O)NCCn2ccnc2[N+](=O)[O-])CCN(CC(=O)[O-])CC1.[Sc+3] [Sc(DO3AM-NI)]
time for complex formation to reach equilibrium [2]: about twelve
